Measurements: a melting point compilation (Tetko et al.; mined from patent text by program, amines drawn as free bases though some values may be those of a salt)

Question: For N#CC1=C(Nc2cccc(Cl)c2)CCC1, which melting point is on record?
Answer: 111 to 112 °C

Question: With CC(=O)NC1C(OCc2ccccc2)OC(COCc2ccccc2)C(OCc2ccccc2)C1OCC(O)CO (stereo not given) as the compound, how does the melting point read?
Answer: 165 to 166 °C

Question: For COc1ccc(C)c(OC(F)C(=O)c2ccccc2)c1 (stereo not given), which melting point is on record?
Answer: 57 to 58 °C

Question: Which melting point does the source give for CC(C)(C)OC(=O)Nc1ccc2ccccc2c1Br here?
Answer: 90 to 91 °C

Question: For Nc1cccc(Oc2ccc(Cl)nn2)c1, which melting point is on record?
Answer: 76 to 77 °C

Question: For COC(=O)C1=C(C)NC(C(OC)OC)=C(C(=O)OC)C1c1cccc2c(=O)c(C)c(-c3ccccc3)oc12 (stereo not given), which melting point is on record?
Answer: 166 to 168 °C

Question: Which melting point does the source give for NC(=O)c1cc([N+](=O)[O-])c(N2CC2)c([N+](=O)[O-])c1 here?
Answer: 228 to 231 °C

Question: Which melting point does the source give for Nc1nc(N)c(C(=O)NC(Cc2ccccc2)C(=O)NCCNCC(O)COc2cccc3ccccc23)nc1Cl (stereo not given) here?
Answer: 142 to 146 °C

Question: With CC(=O)Nc1ccc(-c2cccc(-n3c(-c4cccnc4N)nc4cc(-c5cccc(NC(C)=O)c5)c(-c5cccnc5)nc43)c2)cc1 as the compound, how does the melting point read?
Answer: 166 to 168 °C

Question: For Cc1cc(-c2nc(C)c(C)o2)cc(C)c1O, which melting point is on record?
Answer: 203 to 205 °C

Question: Which melting point does the source give for COC(=O)c1cc2cc(C(=O)c3cccc(C(C)C(=O)OC)c3)sc2s1 (stereo not given) here?
Answer: 122 °C

Question: With CSC1C(=O)Nc2c(Oc3ccccn3)cccc21 (stereo not given) as the compound, how does the melting point read?
Answer: 140 to 142 °C

Question: For O=C(Cl)CCCC(=O)Cl, which melting point is on record?
Answer: 60.6 to 61.4 °C

Question: For Nc1cc(F)c2[nH]nc(NC(=O)c3ccccc3)c2c1, which melting point is on record?
Answer: 208 °C

Question: With CC(C)(C)c1cc(/C=C(\C#N)C(=O)NCCCc2ccccc2)cc(C(C)(C)C)c1O as the compound, how does the melting point read?
Answer: 209 °C

Question: With Cc1cccc(C)c1CNc1cc(C(=O)N(C)C)cc2c1nc(C)n2COCc1ccccc1 as the compound, how does the melting point read?
Answer: 55 to 56 °C

Question: With CN(c1cc(OC(F)(F)F)cc2cc(C3=NCC(CC(=O)O)S3)[nH]c12)S(=O)(=O)c1cccs1 (stereo not given) as the compound, how does the melting point read?
Answer: 225 to 227 °C

Question: Which melting point does the source give for C=COc1ccc(C(=O)c2ccccc2)cc1 here?
Answer: 58 °C

Question: Which melting point does the source give for CN(C)CC(c1ccc(OC(=O)c2ccccc2)cc1)C1(OC(=O)c2ccccc2)CCCCC1 (stereo not given) here?
Answer: 128 to 130 °C

Question: For Clc1[nH]c2ccccc2c1Sc1ccccc1, which melting point is on record?
Answer: 98 to 99 °C

Question: With CN1CCSC1=NC(=O)CCC(=O)N=C1SCCN1C as the compound, how does the melting point read?
Answer: 181 to 183 °C

Question: For COc1cc(CC(C)(C)C(=O)O)cc2c1OC(C)(C)C2, which melting point is on record?
Answer: 88 to 89 °C

Question: For COc1cc2c(cc1OC)CN(CCCCc1ccc(NC(=O)c3ccc4ccccc4c3)cc1)CC2, which melting point is on record?
Answer: 165 to 167 °C

Question: Which melting point does the source give for O=c1c2c[nH]c3c(c-2nn1-c1ccc(Cl)cc1)CN(CCc1ccccc1)CC3 here?
Answer: 256 to 259 °C

Question: With N#CN=C(Nc1ccc(Cl)nc1)Oc1ccccc1 as the compound, how does the melting point read?
Answer: 133 to 134 °C

Question: For CCOC(=O)c1ncn2c1[C@@H]1CCCN1C(=O)c1cc(Cl)ccc1-2, which melting point is on record?
Answer: 242 to 244 °C

Question: With NCC1Cc2cc(-c3ccccc3)cc(-c3cccc(F)c3)c2O1 (stereo not given) as the compound, how does the melting point read?
Answer: > 250 °C

Question: For CC(C)(C)OC(=O)N1CCn2c(c(C(N)=S)c(Cl)c2-c2cccnc2)C1, which melting point is on record?
Answer: 220 to 221 °C

Question: Which melting point does the source give for O=C(Cn1c(=O)c(=O)[nH]c2cc(C(F)(F)F)c(-n3cccc3)cc21)NCc1ccccc1 here?
Answer: 241 to 242 °C

Question: With Oc1cccc2cnsc12 as the compound, how does the melting point read?
Answer: 185 to 187 °C

Question: For O=[N+]([O-])c1ccc(C=Cc2ccncn2)cc1, which melting point is on record?
Answer: 213 to 215 °C

Question: With CCCCCCCCCCCCCCOc1ccc(CC(CO)CC2(C)OCCO2)cc1 (stereo not given) as the compound, how does the melting point read?
Answer: 28 to 29 °C

Question: With CCCc1nc2c(N)nc3cc(OC)ccc3c2s1 as the compound, how does the melting point read?
Answer: 152 to 154 °C

Question: For CCOC(=O)N1c2ccc(C(F)(F)F)cc2[C@@H](NC(=O)OC)C[C@H]1CC, which melting point is on record?
Answer: 157 to 158 °C

Question: For CC(=O)C=CC=Cc1ccc(OCc2ccccc2)cc1, which melting point is on record?
Answer: 132 to 133 °C

Question: For CCC(=O)c1ccc(COc2ccc(CO)c(CO)c2)s1, which melting point is on record?
Answer: 123 °C

Question: With Cc1ccc(-c2[nH]c(-c3ccccc3[N+](=O)[O-])nc2C(=O)Nc2nccs2)cc1 as the compound, how does the melting point read?
Answer: 203 to 204 °C

Question: For NS(=O)(=O)c1ccc(-n2nc(CCCNC(=O)Nc3ccccc3)cc2-c2ccccc2)cc1, which melting point is on record?
Answer: 171 to 172 °C

Question: For COc1ccc2c(c1)C(=O)C(C)(C)CC2c1ccc(Cl)cc1 (stereo not given), which melting point is on record?
Answer: 135 to 138 °C

Question: Which melting point does the source give for CN1C(=O)CC[C@]2(C)c3ccc(Sc4nc5ccc(Cl)cc5s4)cc3CC[C@@H]12 here?
Answer: 156 to 162 °C
